Measured values published in patent US12384746B2, “Physics-driven discovery of novel small therapeutic compounds for use as a BCL-2 inhibitor” (BAHCESEHIR UNIVERSITESI, priority 2020, dated 2025).
Peptide text beside a SMILES is read from it. * marks the point of attachment. Boc = CC(C)(C)OC(=O)*

Test system: HCT-116 cells
Assay: MTT cell proliferation assay on HCT-116 cells
Type: cell-based
Experimental: For cell culture experiments various cancer cell lines, HCT-116 colon cancer, U87-MG glial tumor, MCF7 breast cancer cell lines were used. Cells were seeded with high glucose DMEM medium (Biosera) supplemented with 10% FBS (Gibco) and 1× penicillin/streptomycin (Multicell). Twenty-four hours prior to molecule treatment, 10,000 cells were seeded into each well of 24-well cell culture plates. Molecules were used by preparing 4 mM stock solution in DMSO (Amresco). For molecule treatment, molecule stock solutions were diluted in DMEM with 10% FBS and added onto cells in each corresponding well. Final concentration of vehicle DMSO was 2% at maximum. […] We calculated the number of cells to be seeded to make sure that none of the cells reaches more than 60% confluency during the treatment period, as higher plate confluency levels would slow down cell proliferation independently from the molecule treatment.
Values of half-maximal inhibitory concentration were (IC50) determined by MTT cell proliferation assays. […] 570 nm absorbance values were recorded and IC50 values were calculated by dose response—inhibition curves and nonlinear regression analysis on GraphPad Prism 8 software. […] Following the initial incubation day, molecules were added and after incubation with MTT at 37° C. for 4 hours, formazan was solubilized with DMSO (Sigma-Aldrich, St. Louis, USA) and absorbance was measured at 570 nm. […]

## CCC(C)C(NC(=O)C(Cc1c[nH]c2ccccc12)NC(=O)OC(C)(C)C)C(=O)NC(CC(C)C)C(N)=O (stereo not drawn) [compound of formula I] (Boc-Trp-Ile-Leu-NH2; configuration not given here)
HCT-116 cells, MTT assay, FIG. 1
  proliferation of HCT-116 cells compared to vehicle group: reduced proliferation and apoptotic cell structures
Homo sapiens, 72 h, HCT-116 colon cancer cells, single treatment, three days, 570 nm absorbance, read-out: IC50 (half-maximal inhibitory concentration), MTT cell proliferation
  IC50: 17 µM
